Data from patent publication US20240074473A1, “METHOD FOR INDUCING HYPERTROPHIC MUSCLE FIBERS FOR INDUSTRIAL MEAT PRODUCTION” (Yeda Research and Development Co. Ltd., priority 2021, published 2024).

Assays:
Format in all cases: cell-based
ovine myoblasts = assay: Live imaging of fusion in ovine myoblasts; settings: sheep derived myoblasts, 1 μM
Method: Bovine myoblasts were seeded in equal number in 96-well plates and the following day treated either with PM, PM supplemented with 0.5 uM SCH 772984 (ERKi) or differentiation media (DM). Media was replenished daily either with fresh PM or DM (ERKi was not added again). At 72 hours post treatment, cells were fixed and stained for myosin heavy chain, and several fields per condition were imaged. Nuclei per fiber was quantified per field to result in a fusion index. For ovine myoblasts—equal number of cells were seeded in an 8 well chamber slide for 24 hours. The following day cells were treated with either with 1 uM SCH 772984 (ERKi) or differentiation media (DM), supplemented with 100 nM of Sir-Actin reagent, then incubated for 4 hours and then the slide was transferred to a heated and CO2 chambered microscope unit. Several fields of view were selected and live imaging was performed by capturing images of each field every 7 minutes. The series of images for each treatment over a period of 31 hours was stacked into a movie file using ImageJ.

chicken myoblasts = assay: qRT-PCR gene expression in chicken myoblasts
Method: (§1) Quantitative real-time PCR (qRT-PCR). Total RNA was isolated using Tri-Reagent (SIGMA) according to the manufacturer's instructions. cDNA was synthesized with the High Capacity cDNA Reverse Transcription Kit (Applied Biosystems according to the manufacturer's instructions. qRT-PCR was performed with SYBR green PCR Master Mix (Applied Biosystems) using the StepOnePlus Real-time PCR system (Applied Biosystems). Values for specific genes were normalize to either Gapdh or Hprt housekeeping control as indicated in Figure legend. Expression was calculated using the ddCT method.
Chicken primary derived myoblasts were used as a model to evaluate the efficiency of SCH772984 as the ERKi, compared to conventional differentiation medium (DM) for the purpose of producing muscle (meat) in tissue culture conditions. Chicken myoblasts were isolated from chicken embryos and expanded in proliferation medium. When sufficient cell numbers were acquired, cells were seeded on tissue culture plates and allowed to adhere for 24 hours. Then medium was changed to either PM supplemented with ERKi or DM. At 24-hours post treatment, the cells that received ERKi were replenished with fresh PM (without the addition of more ERKi), and DM treated cells were replenished with fresh DM. Media was replaced daily over a period of 72 hours.

bovine myoblasts = assay: Immunofluorescence intensity of sarcomeric proteins in bovine myotubes; settings: 96 hours post-treatment
Method: Shown is immunofluorescence staining of the sarcomeric components of myosin heavy chain (MyHC), alpha-actinin, and Tropoinin T at 96 hours post treatment either with proliferation media (PM), differentiation media (DM), or with 1 uM SCH 772984 (ERKi).

primary mouse myoblasts [1] = assay: qRT-PCR gene expression in primary mouse myoblasts
Method: as §1
First passage primary mouse derived myoblast were seeded in proliferation media, in equal number in 12-well tissue culture plates that were precoated with 10% Matrigel solution. Following 24 hours to allow for complete attachment, culture media was washed and replaced either with fresh proliferation media (PM), PM supplemented with 1 uM SCH 772984 (ERKi) or differentiation media (DM). After 24 hrs, cells were lysed and RNA was collected. Gene expression analysis was carried out using SYBR green qRT-PCR analysis.

primary mouse myoblasts [2] = assay: MYOG positive nuclei in primary mouse myoblasts (immunofluorescence); settings: 24 hours, ERKi in growth medium
Method: Isolation of and treatment of primary myoblasts. Primary mouse myoblasts were isolated from gastrocnemius muscle using trypsin-tissue dissociation. Briefly, muscle tissues were incubated in Trypsin B (0.25%, Biological Industries) and subjected to mechanical dissociation with a serological pipet. Supernatants were strained and centrifuged. Pellets were grown resuspended in BioAmf-2 media (Biological Industries, Israel) and plated on 10% Matrigel (BD Biosciences)-coated plates at 37° and 5% CO2. For all in vitro experiments, proliferation medium was Bio-Amf2 (Biological Industries, Israel) and Differentiation medium (DM) was DMEM 2% Horse Serum (HS) with 1% Pen/Strep. For fusion assays, cells were trypsinized with Trypsin C (0.05%, Biological Industries) and subjected to two rounds of preplating on uncoated plates to reduce the number of fibroblasts. Cells were plated at a density of 8×10^3 per well in 10% Matrigel-coated 96-well plates in proliferation medium for 24 hours. The following day, proliferation media was replaced either with proliferation media or with DM containing DMSO (Ctrl) or 1 μM ERK1/2 inhibitor (ERKi; SCH772984, Cayman Chemicals), […] RXR antagonist (RXRi; HX-531, Cayman Chemicals), […] Ryanodine receptor antagonist (RYRi; Dantrolene, Cayman Chemicals), 5 μM CaMKII inhibitor (CaMKIIi; KN93, Cayman Chemicals), or with DM for controls.
Immunofluorescence staining. First passage primary myoblasts isolated from various strains (indicated in figure legends) were plated in 96-well plates or chamber slides and treated as previously described. The cells were fixed with ice cold 4% PFA in PBS for 10 minutes, permeabilized with 0.5% Triton X-100 in PBS for 6 minutes, and blocked in PBS with 0.025% tween, 10% normal horse serum and 10% normal goat serum for 1 hour at room temperature. Primary antibody incubation was done in blocking buffer overnight at 4 degrees, with the following antibodies: Myosin Heavy Chain (MyHC, MF20, DSHB hybridoma supernatant 1:10, or MY-32 ABCAM ab51263 1:400), Myogenin (MYOG sc-13137 SCBT 1:200), pHistone 3 (PH3, ab47297 ABCAM 1:1000), Ki-67 (Cell Marque #275R), RYR (ab2868 ABCAM 1:100), and pCaMKII (SIGMA SAB4504356 1:100). Cells were washed 3 times in PBS with 0.025% tween and then incubated with appropriate secondary antibodies in PBS 1 hour. Where indicated, nuclei were either labeled with DAPI (SIGMA D9542, 5 ug/ml) or Hoechst 33342 (Thermo scientific #62249, 1:2000). Fixed cells at 24 hours post treatment with indicated inhibitors were imaged using the Nikon Eclipse Ti2 microscope (further described in microscopy section). All analysis was performed on at least 1000 nuclei. For fixed cells following the timecourse with ERKi or DM (FIG. 1B), images were captured with an inverted Olympus IX83 microscope (further details in microscopy section). All imaging analysis were performed on at least 1000 cells.

O=C(Nc1ccc2[nH]nc(-c3ccncc3)c2c1)[C@@H]1CCN(CC(=O)N2CCN(c3ccc(-c4ncccn4)cc3)CC2)C1 [SCH772984]
Fusion and myotube formation compared to DM (ovine myoblasts): significantly more fusion and myotube formation
Gene expression of maturation/differentiation markers mrf4, myh1, myh2, tnnt3 compared with DM (chicken myoblasts): elevated gene expression
Downregulation of Myf5 expression compared to DM (chicken myoblasts; 72 hour timecourse): stronger across all time points
Pax7 RNA expression (chicken myoblasts; 72 hour timecourse): reduction
Maturation markers (sarcomeric proteins MyHC, actinin, troponin signal intensity) compared to DM (bovine myoblasts): increased
Expression of Ryr1, Ryr3, SERCA1/2, Orai and STIM (primary mouse myoblasts [1]; ERKi 24 hrs vs Ctrl): upregulated
Expression of differentiation and fusion factors MyoD, MyoG, Mymk, Mymx (primary mouse myoblasts [1]; ERKi in growth medium, time course): upregulated
Expression of maturation markers myosin heavy chain and troponin compared to DM (primary mouse myoblasts [1]; mouse myoblasts, 1 uM ERKi in PM, 24 hrs): stronger expression
Fraction of MYOG positive nuclei compared to DM (primary mouse myoblasts [2]): significantly higher
